# From patent US8729047B2, “Compositions for inhibiting redox-sensitive GTPases” (Board of Regents, The University of Texas System, priority 2010, dated 2014)
# Where two headings read alike, the source gives them in different places.
# How the values were obtained:
# [1] = biological target: Ras (Homo sapiens, UniProt P01112); assay: [3H]GDP displacement of 6-TGDP from .NO2-treated 6-TGDP-loaded GTPase with/without DTT (FIG. 13B); format: binding
# Procedure: FIG. 13. Guanine nucleotide exchange of small GTPases with 6-TGDP. (A) To monitor 6-TGDP-mediated GTPase GDP dissociation, [^3H]GDP-loaded GTPase (1 μM) was incubated with 6-TGDP (0-2000 μM) for 1 h. (B) To monitor GTPase 6-TGDP dissociation by GDP (0-2000 μM) in the presence and absence of dithiothreitol (DTT), 6-TGDP-loaded GTPase (˜1 μM) was treated with .NO2 (˜3 μM) under anaerobic conditions and was incubated with various concentrations of [^3H]GDP (0-2000 μM) in the presence and absence of DTT (10 mM) for 1 h. For all assays, aliquots were withdrawn and spotted onto nitrocellulose filters. The filters were then washed three times with an assay buffer, and radioactivity was determined using a Beckman-Coulter scintillation counter. The resultant radioactivity (dpm) values associated with GTPase-bound [^3H]GDP were converted into the fraction of mol nucleotide per mol total GTPase. The data presented represent mean and standard error values from triplicate measurements. The apparent dissociation constants (appKD values) of GTPase 6-TGDP association ([^3H]GDP dissociation, A); and 6-TGDP dissociation ([3H]GDP association, B) were obtained by fitting the data to a simple dissociation and association, respectively. (A) The ^appKD values of Ras, RhoC, RhoA and Rac1 for 6-TGDP, are, respectively, 2300, 230, 224, and 245 μM [6-TGDP]. (B) The appKD values of RhoC with and without DTT are, respectively, 560, and 1000 μM [[^3H]GDP], whereas the ^appKD values of Ras with and without DTT are 530, and 520 μM [[^3H]GDP], respectively. The standard errors of each ^appKD value are less than 10% of their given values, and regression values associated with the fit were r^2>0.9560.
# The ^appKD [3H]GDP was converted into ^trueKD [3H]GDP by using a compensation equation, ^trueKD [3H]GDP=^appKD [3H]GDP/(1+[6-TGDP]/^trueKD GDP) (Segel, I. H. (1993) Enzyme kinetics, A Wiley-Interscience publication, New York) (see above)). The calculated ^trueKD [3H]GDP values of RhoC in the presence and absence of DTT were estimated to be 516 μM and 923 μM, respectively. […] Treatment with DTT, a reducing agent, disrupts the disulfide bond between RhoC and 6-TGDP, liberating 6-TGDP from RhoC, and thereby permitting [^3H]GDP to bind to RhoC.
# [2] = system: Rho GTPases; assay: Binding of 6-TGDP compared with GDP (Example 2); details: Example 2, FIG. 13 values
# Procedure: The true dissociation constant (^trueKD 6-TGDP) of Ras, RhoC, RhoA and Rac1 for 6-TGDP was then calculated to be ˜20.7 pM, 212 μM, 208 μM, and 158 μM [6-TGDP] by using a compensation equation, ^trueKD 6-TGDP=^appKD 6-TGDP/(1+[GDP]/^trueKD GDP) (95), in conjunction with the values given [(^appKD 6-TGDP of Ras, RhoC, RhoA, and Rac1=2300, 230, 224, and 245 μM (FIG. 13) and ^trueKD GDP=9 pM, 12 μM, 13 μM and 1.8 μM, respectively. The ^trueKD GDP of Ras, RhoA and Rac1 was determined previously (Lenzen et al. Biochemistry 37, 7420-7430 (1998); Heo et al. Biochemistry 44, 6573-6585 (2005)) and the ^trueKD GDP of RhoC was further determined. Example: ^trueKD 6-TGDP for Ras=2300 μM/(1+1 μM GDP/[…])=[…] [6-TGDP]].
# [3] = system: Rho proteins; assay: Binding affinity of 6-TGDP compared with GDP (Example 3); details: all examined Rho proteins; FIG. 16A
# Procedure: (a) A competitive binding assay was performed to determine the binding affinity of Rho GTPase and 6-TGDP. The radiolabeled [^3H]GDP-loaded Rho protein (1 μM) was titrated with various concentrations of 6-TGDP. The titrated Rho protein sample then was spotted onto a nitrocellulose membrane. Each membrane was washed three times with the assay buffer, and radioactivity was determined using a Beckman-Coulter scintillation counter. The radioactivity of the sample (Rho protein-bound [^3H]GDP) was converted into, and thus plotted, as the fraction of mol GDP per mol total Rho protein. The apparent dissociation constant (^appKD) of the Rho protein with [^3H]GDP in the presence of 6-TGDP was determined by using Prism software to fit the titration curve to a hyperbola.
# The RhoC and mutant RhoC bound GDP also can be competitively displaced with 6-TGDP (FIG. 16A). The binding affinities that 6-TGDP has for all of these examined Rho proteins are ˜2-fold weaker than that of GDP for Rho proteins (FIG. 16A).
# [4] = system: SUM149 cells; assay: MTT cell viability and caspase-3/8 assays; format: cell-based, human
# Excerpt: FIG. 25. […] (B) Caspase-3/8 assay: the apoptotic activity of sample cells treated with the apoptotic inducer was set to be 100%, and other results were then expressed as normalized values against the mean value associated with the treatment with the apoptotic inducer. For both (A) and (B), all values represent the mean values and standard error values from triplicate measurements.
# [5] = biological target: T1, Ras (Homo sapiens, UniProt P01112, G12V); assay: Ras expression and activity in T24 / HT1080 cells; format: cell-based; details: T24 (or HT1080) cells, 6-TG 1 μM every 48 h and DETA/NO 10 μM every 20 h, longer than 10 days; FIG. 8
# T1 construct: endogenous in cells; text also names HT1080
# Procedure: (§1) FIG. 8. Examination of Ras and Raf-1 activity in T24 cells treated with various reagents. […] The total Raf-1 expression also was determined using an anti-Raf-1 antibody. Actin expression in cells was shown as controls.
# [6] = system: A7r5 cells; assay: Viability / cytotoxicity of A7r5 cells; format: cell-based, rat; details: 5 days of treatment; FIG. 24
# Excerpt: FIG. 24. Effects of 6- and 8-TG on A7r5 cells. Treatment of cells with 6- or 8-TG is described in FIGS. 19 and 21. The image associated with the effect of 6- or 8-TG was taken after 5 days of treatment.
# [7] = system: Ras; assay: Ras expression and activity in T24 / HT1080 cells; format: cell-based, human; details: T24 and HT1080 cells, 8-TG 1 μM with NO donor; not shown
# Procedure: as §1
compound,measurement,setting,value
Nc1nc2c(ncn2[C@@H]2O[C@H](COP(=O)(O)OP(=O)(O)O)[C@@H](O)[C@H]2O)c(=O)[nH]1 [GDP],Kd,"[1]; absence of DTT, calculated by compensation equation, read-out: trueKD [3H]GDP",0.0048 µM
same,Kd,"[1]; presence of DTT, calculated by compensation equation, read-out: trueKD [3H]GDP",0.0047 µM
same,Kd,"[1]; with DTT 10 mM, 6-TGDP-loaded GTPase ~1 μM treated with .NO2 ~3 μM, anaerobic, 1 h, read-out: appKD for [3H]GDP (6-TGDP dissociation)",530 µM
same,Kd,"[1]; without DTT, 6-TGDP-loaded GTPase ~1 μM treated with .NO2 ~3 μM, anaerobic, 1 h, read-out: appKD for [3H]GDP (6-TGDP dissociation)",520 µM
"Nc1nc2c(ncn2[C@@H]2O[C@H](COP(=O)(O)OP(=O)(O)O)[C@@H](O)[C@H]2O)c(=S)[nH]1 [6-TGDP, 6-thioguanosine diphosphate]",binding interaction with 6-TGDP weaker than with GDP,[2],~15 fold
same,binding affinity of 6-TGDP weaker than that of GDP,[3],~2 fold
"Nc1nc2nc[nH]c2c(=S)[nH]1 [6-TG, 6-thioguanine]","apoptotic effect (caspase, FIG. 25B)",[4]; 6-TG,minimal
same,viability and caspase activity,"[4]; 6-TG and DETA/NO, FIG. 25",minimally affected
same,"cell viability (MTT, FIG. 25A)",[4]; 6-TG for 3 days,minimally affected
same,Ras inactivation,[5],significant amount of Ras (per cell mass) was inactivated
"Nc1nc2[nH]c(S)nc2c(=O)[nH]1 [8-TG, 2-amino-8-mercapto-1H-purin-6(9H)-one]",viability / cytotoxicity of A7r5 cells,[6],did not alter the viability
same,expression and activity of Ras,[7],virtually unchanged
